# Laboratory results taken from patent US20030129677A1, “Diagnostic method for screening complement regulatory protein levels” (priority 2000, published 2003).
# System: DAF (CD55) on MCF-7 breast cancer cells
# Assay: TNF-α modulation of DAF (CD55) on MCF-7 breast cancer cells (western blot, densitometry)
# Assay type: cell-based
# Settings: MCF-7 cells, different concentrations of recombinant TNF-α for 18 hours
# Description: Estrogen primed and unprimed MCF-7 cells were treated with different concentrations of recombinant TNF-α for 18 hours. Estrogen primed cells were treated overnight with 20 ng/ml β estradiol. DAF protein was extracted by lysis treatment of cells and quantitated, run on SDS-PAGE followed by western blot analysis using anti DAF antibody. Bands were visualized by ECL method (Amersham). DAF levels were quantitated densitometrically and expressed as densitometric units.
substance,measurement,setting,value
TNF-α,DAF (CD55) expression,"estrogenized conditions (primed overnight with 20 ng/ml β estradiol), FIG. 5",upregulated CD55 in a dose dependent manner
same,DAF (CD55) expression,nonestrogenized conditions,downregulated expression of CD55 in a dose dependent manner
